PMC4922569, “Antifibrotic Effects of the Dual CCR2/CCR5 Antagonist Cenicriviroc in Animal Models of Liver and Kidney Fibrosis” (PLoS ONE, 2016)
Structures can show the parent of a compound that is named as a salt.

Tests used:
[1] = system: monocyte/macrophage recruitment; assay: Thioglycollate (TG)-induced mouse model of peritonitis: peritoneal lavage monocyte/macrophage counts; type: in vivo; settings: for Decrease in peritoneal lavage monocyte/macrophage counts compared to vehicle control: 48 h post-TG
Protocol: A murine thioglycollate (TG)-induced model of peritonitis, where acute inflammation induced by intraperitoneal (IP) injection of TG results in a rapid increase in monocyte/macrophage migration into the peritoneal cavity, was employed to assess the effects of CVC on cell recruitment in vivo. The protocol was approved by the IACUC of Charles River Laboratories Preclinical Services, Montreal (PCS-MTL). The care and use of animals was conducted in accordance with the guidelines of the US National Research Council and the Canadian Council on Animal Care.
Male C57BL/6 mice (n = 44; 8–10 weeks of age; Charles River Laboratories, Canada) were allocated to receive treatments via oral gavage (PO) on Days 1–5 in the following groups: non-disease control, vehicle control twice daily (BID), CVC 5 mg/kg/day (CVC5) BID, CVC 20 mg/kg/day (CVC20) BID, CVC 100 mg/kg/day (CVC100) BID, CVC20 QD, and positive control dexamethasone (corticosteroid known to reduce inflammation in a variety of animal models) 1 mg/kg QD (S1 Table). On Day 4, peritonitis was induced via IP injection of TG 3.85% (1 mL/animal) 2 hours post-dose in all groups except non-disease controls. Study endpoints included: peritoneal lavage cell counts and pharmacokinetic (PK) evaluation. Animals were sacrificed 48 hours post-TG injection by isoflurane inhalation, and peritoneal lavage and blood samples (0.7 mL) were collected. Differential cell counts were assessed in peritoneal lavage samples using an Advia® Hematology System (Siemens Healthcare Diagnostics, USA) with multispecies software and an analysis software designed for mouse peritoneal fluid on Advia® 120 (LabThruPut, USA). A 0.3 mL aliquot of the blood sample was processed to plasma for PK analysis.
In the peritonitis mouse model, one-way analysis of variance with post-hoc Dunnett’s test was performed, using GraphPad Prism® (GraphPad Software, Inc., USA), on differential cell counts obtained from lavage in treatment groups versus the vehicle-control group. For the ex vivo migration of mouse monocytes, statistical significance was determined by a Student’s t test.

[2] = system: UUO-induced renal fibrosis; assay: Mouse model of UUO-induced renal fibrosis; type: in vivo; settings: for Reduction of UUO-induced increase in Collagen Volume Fraction (±SEM) vs UUO control: p < 0.05
Protocol: Unilateral ureter obstruction is a commonly used experimental model of kidney injury, in which interstitial inflammation, tubular cell injury/death and fibrosis, ensue. The protocol was approved by Plato BioPharma, Inc. IACUC (PBI; approval number 2013–04). The care and use of animals was conducted in accordance with the NIH Guide for the Care and Use of Laboratory Animals (2010), […] Guidelines on Euthanasia (2007), Office of Laboratory Animal Welfare Institutional Animal Care and Use Committee Guidebook (2002), Public Health Service Policy on Humane Care and Use of Laboratory Animals (2002), PBI standard operating procedures on a) moribund sacrifice, b) vivarium maintenance and animal care, and c) animal handling and dosing. Anesthesia was performed by isoflurane […]; animals were euthanized by diaphragm laceration followed by heart laceration while under isoflurane anesthesia.
Male CD-1 mice (n = 51; 7–8 weeks of age; Charles River Laboratories, USA) were allocated to weight-matched treatment groups on Day -1 (1 day prior to either sham [one group] or permanent right UUO surgery [five groups] via aseptic laparotomy). From Days -1 to 4, mice received phosphate-buffered saline (PBS) IP QD, apart from a positive-control group, which received 1D11 (anti-TGF-beta1 antibody) 3 mg/kg IP QD. From Days 0 to 5, mice received vehicle control (sham surgery, UUO-control and UUO+positive-control groups) or CVC 7 mg/kg/day (CVC7), CVC20 or CVC100 PO BID (S1 Table). The CVC100 group was terminated due to poor clinical condition (6/9 animals died and 3/9 euthanized prior to end of study). […]
In the UUO model, ten images/depth/kidney were assessed in a blinded fashion using Axio Imager.A2 (Zeiss, USA) light microscopy (at 200x magnification to enable 60–70% sampling of renal cortical area) and quantified by a composite Collagen Volume Fraction (CVF [% total area imaged]) score expressed as the average positive stain across three anatomically distinct ([…] apart) tissue sections, or depths, from the obstructed kidney.
In the UUO model, frozen renal cortical tissue biopsies were hydrolyzed and centrifuged, and the supernatant was analyzed by OD absorbance at 560 nm on a SpectraMax® 190 (Molecular Devices, USA). Standard curves for conversion of ODs to concentrations were generated using linear regression and sample concentrations were determined using SoftMax® Pro5 software (Molecular Devices, USA).
In the UUO model, mRNA expression levels in renal cortical tissue were evaluated using the QuantiGene® Plex 2.0 profiling platform (Affymetrix, USA). […]
In the UUO model, data are expressed as mean ±SEM. […]

[3] = system: CCR2; settings: cited from earlier work
[4] = system: CCR5; settings: cited from earlier work
[5] = in rats; cited from earlier work
[6] = CVC 250 nM, murine cryopreserved PBMC ex vivo
[7] = CVC concentrations of 250 nmol/L or higher, mouse monocytes and macrophages ex vivo

**Q.** What does the source list for `CCCCOCCOc1ccc(-c2ccc3c(c2)/C=C(/C(=O)Nc2ccc([S@@+]([O-])Cc4cncn4CCC)cc2)CCCN3CC(C)C)cc1` [CVC, cenicriviroc mesylate]?
**A.** Decrease in peritoneal lavage monocyte/macrophage counts compared to vehicle control ([1]; CVC5 (5 mg/kg/day) BID PO Days 1-5): 5.7%; Decrease in peritoneal lavage monocyte/macrophage counts compared to vehicle control ([1]; CVC20 (20 mg/kg/day) BID PO Days 1-5): 45.2%; Decrease in peritoneal lavage monocyte/macrophage counts compared to vehicle control ([1]; CVC20 (20 mg/kg/day) QD PO Days 1-5): 26.0%; Decrease in peritoneal lavage monocyte/macrophage counts compared to vehicle control ([1]; CVC100 (100 mg/kg/day) BID PO Days 1-5): 76.5%; Greater reduction in monocyte/macrophage count compared to dexamethasone ([1]; CVC100 BID vs dexamethasone 1 mg/kg QD, p < 0.001): 62.1%; Doses achieving statistically significant decrease in monocyte/macrophage recruitment ([1]; p < 0.05 vs vehicle control): ≥ 20 mg/kg/day; Effect on UUO-induced increase in obstructed kidney hydroxyproline content ([2]; CVC7, CVC20 PO BID): did not affect; Reduction of UUO-induced increase in Collagen Volume Fraction (±SEM) vs UUO control ([2]; CVC7 PO BID Days 0-5): 28.6%±8.8; Inhibition of UUO-induced increases in obstructed renal cortical mRNA expression of fibrogenic genes ([2]; CVC7 and CVC20, trend, relative to UUO control): did not reach statistical significance; Reduction of UUO-induced increase in Collagen Volume Fraction (±SEM) vs UUO control ([2]; CVC20 PO BID Days 0-5, single outlier removed): 31.8%±6.8; Occupancy for CCR2 (blood and spleen) in proinflammatory monocytes [3, 6]: > 90%; CCR2 occupancy [3, 7]: > 87%; Occupancy for CCR5 (spleen) in proinflammatory monocytes [4, 6]: 87%; CCR5 occupancy [4, 7]: > 87%; Half-life [5]: 4 to 5 h
